Reference: US20240299385A1 (ReWind Therapeutics NV, priority 2021, published 2024)

Molecular target: T1, human GPR17 receptor (Homo sapiens, UniProt Q13304)
T1 construct: host or cells: HEK-293
Test: Calcium mobilization functional assay (Fluo-8, FLIPR TETRA) in HEK-293 hGPR17 (Gα-q assay)
Assay type: cell-based
Conditions: antagonism of MDL29,951 (~EC80) induced Ca2+ signal; cell line (HEK-293 hGPR17 or HEK-293 Suchi5 hGPR17) not given
Experimental: HEK-293 cells stably expressing the human GPR17 receptor (HEK-293 hGPR17) developed by Axxam (Bresso, Milan, Italy) were cultured at 37° C. in a humidified atmosphere of 5% CO2. Cells were grown in EMEM supplemented with FBS (10%), Penicillin/Streptomycin (1%), Ultraglutamine I (2 mM), puromycin (0.6 μg/mL), G418 (0.4 mg/mL), zeocin (50 μg/mL). This cell line was used to test the compound antagonistic activity by monitoring the Gα-q based signaling. Signaling via Gα-q leads to mobilization of calcium from internal stores. Elevated intracellular calcium levels can then be measured with calcium-sensitive fluorescent dyes (e.g., Fluo 8-No Wash Dye).
GPR17 activation leads to both an increase in intracellular calcium (via Gα-q) and a decrease in cAMP levels (via Gα-i), implicating that both of these pathways play a role for in vivo function.
Experiments were performed using the below cell lines, as described in part 1: • HEK-293 hGPR17 (used to study the compounds acting via Gα-q pathway) • HEK-293 Suchi5 hGPR17 (used to study the compounds acting via Gα-i pathway, where the Gα-i signaling is switched to a Gα-q signaling thanks to the Gα-i/q chimera Suchi5)
GPR17 activation was able to induce an endoplasmic reticulum calcium (Ca^2+) store release in cytosol which could be measured using the fluorescent Ca^2+ sensitive dye Fluo-8 No Wash Dye as readout.
HEK-293 hGPR17 and HEK-293 Suchi5 hGPR17 were seeded at a density of 15,000 cells/well into poly-D-lysine coated black 384-well plates with clear bottom in complete medium. Cells were incubated overnight at 37° C. in a humidified atmosphere of 5% CO2. Twenty-four hours after seeding, the culture medium was carefully removed manually and the cells were loaded for 60 minutes at room temperature with the Ca^2+ sensitive Fluo-8 No Wash Dye, according to manufacturer's instructions. Cells were then assayed using a fluorometric imaging plate reader (FLIPR^TETRA). Fluorescence (excitation: 470-495 nm; emission: 515-575 nm) was recorded during the experiment. […] After twenty minutes, a second injection of MDL29,951 at ˜EC80 (500 nM for HEK-293 hGPR17 and 2 nM for HEK-293 Suchi5 hGPR17) in assay buffer was performed at the FLIPR^TETRA and the signal of the emitted fluorescence was recorded for additional 2 minutes. All the compound injections and incubations were performed in duplicate. For data quality and data analysis the Screener® 16.0.6 (Genedata) software was used.

T1 sequence (Q13304 whole entry): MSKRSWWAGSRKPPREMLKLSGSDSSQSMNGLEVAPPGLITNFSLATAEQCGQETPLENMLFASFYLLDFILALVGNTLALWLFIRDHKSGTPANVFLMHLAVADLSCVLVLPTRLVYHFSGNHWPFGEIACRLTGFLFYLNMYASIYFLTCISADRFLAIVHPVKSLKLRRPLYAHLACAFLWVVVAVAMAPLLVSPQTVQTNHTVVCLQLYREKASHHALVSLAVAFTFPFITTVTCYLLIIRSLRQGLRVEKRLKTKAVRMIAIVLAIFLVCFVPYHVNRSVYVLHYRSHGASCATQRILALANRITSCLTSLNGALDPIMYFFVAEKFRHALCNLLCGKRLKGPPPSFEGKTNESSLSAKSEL

Row | Structure (SMILES) | IC50 [nM]
1 | N#Cc1ccc(NS(=O)(=O)c2c[nH]c(-c3cccc(Cl)c3F)c2)c(F)c1 [Cpd 039, 5-(3-chloro-2-fluoro-phenyl)-N-(4-cyano-2-fluoro-phenyl)-1H-pyrrole-3-sulfonamide] | < 500
2 | N#Cc1ccc(NS(=O)(=O)c2c[nH]c(-c3cccc(F)c3F)c2)c(F)c1 [Cpd 040, N-(4-cyano-2-fluoro-phenyl)-5-(2,3-difluorophenyl)-1H-pyrrole-3-sulfonamide] | < 500
3 | N#Cc1ccc(NS(=O)(=O)c2c[nH]c(-c3cc(F)ccc3F)c2)c(F)c1 [Cpd 041, N-(4-cyano-2-fluoro-phenyl)-5-(2,5-difluorophenyl)-1H-pyrrole-3-sulfonamide] | < 500
4 | Cc1cccc(-c2cc(S(=O)(=O)Nc3ccc(C#N)cc3F)c[nH]2)c1F [Cpd 042, N-(4-cyano-2-fluoro-phenyl)-5-(2-fluoro-3-methyl-phenyl)-1H-pyrrole-3-sulfonamide] | < 500
5 | Cc1ccc(-c2cc(S(=O)(=O)Nc3ccc(C#N)cc3F)c[nH]2)c(F)c1 [Cpd 043, N-(4-cyano-2-fluoro-phenyl)-5-(2-fluoro-4-methyl-phenyl)-1H-pyrrole-3-sulfonamide] | 500 to 5000
6 | Cc1ccc(F)c(-c2cc(S(=O)(=O)Nc3ccc(C#N)cc3F)c[nH]2)c1 [Cpd 044, N-(4-cyano-2-fluoro-phenyl)-5-(2-fluoro-5-methyl-phenyl)-1H-pyrrole-3-sulfonamide] | < 500
7 | N#Cc1ccc(NS(=O)(=O)c2c[nH]c(-c3ccc(Cl)cc3F)c2)c(F)c1 [Cpd 045, 5-(4-chloro-2-fluoro-phenyl)-N-(4-cyano-2-fluoro-phenyl)-1H-pyrrole-3-sulfonamide] | 500 to 5000
8 | N#Cc1ccc(NS(=O)(=O)c2c[nH]c(-c3cc(Cl)ccc3F)c2)c(F)c1 [Cpd 046, 5-(5-chloro-2-fluoro-phenyl)-N-(4-cyano-2-fluoro-phenyl)-1H-pyrrole-3-sulfonamide] | < 500
9 | O=S(=O)(Nc1cc(F)c(F)cc1F)c1c[nH]c(-c2ccccc2F)c1 [Cpd 047, 5-(2-fluorophenyl)-N-(2,4,5-trifluorophenyl)-1H-pyrrole-3-sulfonamide] | 500 to 5000
10 | O=S(=O)(Nc1ncc(Cl)cc1F)c1c[nH]c(-c2ccccc2F)c1 [Cpd 048, N-(5-chloro-3-fluoro-2-pyridyl)-5-(2-fluorophenyl)-1H-pyrrole-3-sulfonamide] | 500 to 5000
11 | O=S(=O)(Nc1cccc2c1OCO2)c1c[nH]c(-c2ccccc2F)c1 [Cpd 049, N-(1,3-benzodioxol-4-yl)-5-(2-fluorophenyl)-1H-pyrrole-3-sulfonamide] | 500 to 5000
12 | O=S(=O)(Nc1cccc2nsnc12)c1c[nH]c(-c2ccccc2F)c1 [Cpd 050, N-(2,1,3-benzothiadiazol-4-yl)-5-(2-fluorophenyl)-1H-pyrrole-3-sulfonamide] | < 500
13 | O=S(=O)(Nc1cc(F)ccc1F)c1c[nH]c(-c2ccccc2F)c1 [Cpd 051, N-(2,5-difluorophenyl)-5-(2-fluorophenyl)-1H-pyrrole-3-sulfonamide] | 500 to 5000
14 | O=S(=O)(Nc1ccc(Cl)cc1F)c1c[nH]c(-c2ccccc2F)c1 [Cpd 052, N-(4-chloro-2-fluoro-phenyl)-5-(2-fluorophenyl)-1H-pyrrole-3-sulfonamide] | 500 to 5000
15 | N#CCc1ccc(NS(=O)(=O)c2c[nH]c(-c3ccccc3F)c2)c(F)c1 [Cpd 053, N-[4-(cyanomethyl)-2-fluoro-phenyl]-5-(2-fluorophenyl)-1H-pyrrole-3-sulfonamide] | 500 to 5000
16 | O=S(=O)(Nc1ccc(F)cc1F)c1c[nH]c(-c2ccccc2F)c1 [Cpd 054, N-(2,4-difluorophenyl)-5-(2-fluorophenyl)-1H-pyrrole-3-sulfonamide] | 5000 to 50000
17 | O=S(=O)(Nc1ccc(C(F)(F)F)cc1F)c1c[nH]c(-c2ccccc2F)c1 [Cpd 055, 5-(2-fluorophenyl)-N-[2-fluoro-4-(trifluoromethyl)phenyl]-1H-pyrrole-3-sulfonamide] | 500 to 5000
18 | O=S(=O)(Nc1cccc(F)c1F)c1c[nH]c(-c2ccccc2F)c1 [Cpd 056, N-(2,3-difluorophenyl)-5-(2-fluorophenyl)-1H-pyrrole-3-sulfonamide] | 5000 to 50000
19 | Cc1ccc(NS(=O)(=O)c2c[nH]c(-c3ccccc3F)c2)c(F)c1 [Cpd 057, N-(2-fluoro-4-methyl-phenyl)-5-(2-fluorophenyl)-1H-pyrrole-3-sulfonamide] | 500 to 5000

Row | Structure (SMILES) | IC50 [nM]
20 | N#Cc1ccc(NS(=O)(=O)c2c[nH]c(-c3ccccc3F)c2)cc1Cl [Cpd 058, N-(3-chloro-4-cyano-phenyl)-5-(2-fluorophenyl)-1H-pyrrole-3-sulfonamide] | 500 to 5000
21 | COc1cc(NS(=O)(=O)c2c[nH]c(-c3ccccc3F)c2)ccc1C#N [Cpd 059, N-(4-cyano-3-methoxy-phenyl)-5-(2-fluorophenyl)-1H-pyrrole-3-sulfonamide] | 500 to 5000
22 | COc1cc(C(F)(F)F)cnc1NS(=O)(=O)c1c[nH]c(-c2ccccc2F)c1 [Cpd 060, 5-(2-fluorophenyl)-N-[3-methoxy-5-(trifluoromethyl)pyridin-2-yl]-1H-pyrrole-3-sulfonamide] | 500 to 5000
23 | COc1cc(CC#N)cnc1NS(=O)(=O)c1c[nH]c(-c2ccccc2)c1 [Cpd 061, N-[5-(cyanomethyl)-3-methoxypyridin-2-yl]-5-phenyl-1H-pyrrole-3-sulfonamide] | < 500
24 | COc1cc(Br)cnc1NS(=O)(=O)c1c[nH]c(-c2ccccc2)c1 [Cpd 062, N-(5-bromo-3-methoxypyridin-2-yl)-5-phenyl-1H-pyrrole-3-sulfonamide] | 500 to 5000
25 | COc1cc(C#N)c(F)cc1NS(=O)(=O)c1c[nH]c(-c2ccccc2)c1 [Cpd 063, N-(4-cyano-5-fluoro-2-methoxyphenyl)-5-phenyl-1H-pyrrole-3-sulfonamide] | < 500
26 | N#Cc1cc(F)c(NS(=O)(=O)c2c[nH]c(-c3ccccc3)c2)c(F)c1 [Cpd 064, N-(4-cyano-2,6-difluoro-phenyl)-5-phenyl-1H-pyrrole-3-sulfonamide] | 500 to 5000
27 | N#CCOc1cc(F)c(NS(=O)(=O)c2c[nH]c(-c3ccccc3)c2)cc1F [Cpd 065, N-[4-(cyanomethoxy)-2,5-difluoro-phenyl]-5-phenyl-1H-pyrrole-3-sulfonamide] | < 500
28 | N#Cc1ccc(NS(=O)(=O)c2c[nH]c(-c3ccncc3F)c2)c(F)c1 [Cpd 066, N-(4-cyano-2-fluoro-phenyl)-5-(3-fluoro-4-pyridyl)-1H-pyrrole-3-sulfonamide] | 500 to 5000
29 | Cc1[nH]cc(S(=O)(=O)Nc2ccc(C#N)cc2F)c1Cc1ccccc1 [Cpd 067, 4-benzyl-N-(4-cyano-2-fluorophenyl)-5-methyl-1H-pyrrole-3-sulfonamide] | 5000 to 50000
30 | O=S(=O)(Nc1ncc(Cl)cc1F)c1c[nH]c(-c2ccccc2)c1 [Cpd 068, N-(5-chloro-3-fluoro-2-pyridyl)-5-phenyl-1H-pyrrole-3-sulfonamide] | < 500
31 | O=S(=O)(Nc1cccc2c1OCO2)c1c[nH]c(-c2ccccc2)c1 [Cpd 069, N-(1,3-benzodioxol-4-yl)-5-phenyl-1H-pyrrole-3-sulfonamide] | 500 to 5000
32 | Cc1cc(F)c(NS(=O)(=O)c2c[nH]c(-c3ccccc3)c2)cc1F [Cpd 070, N-(2,5-difluoro-4-methyl-phenyl)-5-phenyl-1H-pyrrole-3-sulfonamide] | < 500
33 | O=S(=O)(Nc1cc(F)c(C(F)(F)F)cc1F)c1c[nH]c(-c2ccccc2)c1 [Cpd 071, N-[2,5-difluoro-4-(trifluoromethyl)phenyl]-5-phenyl-1H-pyrrole-3-sulfonamide] | < 500
34 | N#Cc1ccc(NS(=O)(=O)c2c[nH]c(-c3ccccc3F)c2)cc1F [Cpd 072, N-(4-cyano-3-fluoro-phenyl)-5-(2-fluorophenyl)-1H-pyrrole-3-sulfonamide] | < 500
35 | O=S(=O)(Nc1cc(F)c(C(F)(F)F)cc1F)c1c[nH]c(-c2ccccc2F)c1 [Cpd 073, N-[2,5-difluoro-4-(trifluoromethyl)phenyl]-5-(2-fluorophenyl)-1H-pyrrole-3-sulfonamide] | < 500
36 | N#Cc1cc(F)c(NS(=O)(=O)c2c[nH]c(-c3ccccc3F)c2)cc1F [Cpd 074, N-(4-cyano-2,5-difluoro-phenyl)-5-(2-fluorophenyl)-1H-pyrrole-3-sulfonamide] | < 500
37 | Cc1cc(F)c(NS(=O)(=O)c2c[nH]c(-c3ccccc3F)c2)cc1F [Cpd 075, N-(2,5-difluoro-4-methyl-phenyl)-5-(2-fluorophenyl)-1H-pyrrole-3-sulfonamide] | < 500
